Measurements as given in patent US20100267561A1, “HERBICIDAL PYRIDAZINONE DERIVATIVES” (priority 2007, published 2010).

Key:
Type in all cases: in vivo
[1] = system: yellow nutsedge (Cyperus esculentus); experiment: Test B pre-/postemergence plant response
Method in brief: (§1)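 Preemergence and postemergence (plants 2-18 cm, 1- to 4-leaf stage) applications used test chemicals in a non-phytotoxic solvent with surfactant. Plants were held in a greenhouse 13 to 15 days, then rated visually against controls on a 0-100 scale (0 no effect, 100 complete control).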

[2] = system: soybean (Glycine max); experiment: Test B pre-/postemergence plant response
Method in brief: as §1

[3] = system: eastern black (E.B.) nightshade (Solanum ptycanthum); experiment: Test B pre-/postemergence plant response; conditions: Preemergence
Method in brief: as §1

[4] = system: Russian thistle (Salsola iberica); experiment: Test B pre-/postemergence plant response; conditions: Preemergence
Method in brief: as §1

[5] = system: Italian ryegrass (Lolium multiflorum); experiment: Test B pre-/postemergence plant response
Method in brief: as §1

[6] = system: common ragweed (Ambrosia elation); experiment: Test B pre-/postemergence plant response
Method in brief: as §1

[7] = system: cocklebur (Xanthium strumarium); experiment: Test B pre-/postemergence plant response; conditions: for Cocklebur plant response rating: 8 g ai/ha
Method in brief: as §1

[8] = system: pigweed (Amaranthus retroflexus); experiment: Test B pre-/postemergence plant response
Method in brief: as §1

[9] = system: kochia (Kochia scoparia); experiment: Test B pre-/postemergence plant response; conditions: for Kochia plant response rating: postemergence, 0-100 scale; for Plant response rating, Kochia: Postemergence
Method in brief: as §1

[10] = system: goosegrass (Eleusine indica); experiment: Test B pre-/postemergence plant response
Method in brief: as §1

[11] = system: woolly cupgrass (Eriochloa villosa); experiment: Test B pre-/postemergence plant response
Method in brief: as §1

[12] = system: wheat (Triticum aestivum); experiment: Test A pre-/postemergence plant response
Method in brief: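 Both pre- and postemergence treatment given concurrently; postemergence seedlings measured 2–10 cm at the one- to two-leaf stage. Visual injury, 0–100 scale versus untreated, at ~10 days.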

[13] = 8 g ai/ha, postemergence, 0-100 scale
[14] = 16 g ai/ha, postemergence, 0-100 scale
[15] = Postemergence, 31 g ai/ha, scale 0 to 100
[16] = Postemergence, 62 g ai/ha, scale 0 to 100, 0 no effect, 100 complete control
[17] = Preemergence, 31 g ai/ha, scale 0 to 100 (0 no effect, 100 complete control)
[18] = Preemergence, 62 g ai/ha, 0 to 100 scale, 0 no effect, 100 complete control
[19] = Preemergence, 8 g ai/ha, scale 0 to 100
[20] = Preemergence, 16 g ai/ha, scale 0 to 100
[21] = 31 g ai/ha, scale 0 to 100 (0 no effect, 100 complete control)
[22] = 62 g ai/ha, 0 to 100 scale, 0 no effect, 100 complete control
[23] = Postemergence, 16 g ai/ha, scale 0 to 100
[24] = Preemergence, 16 g ai/ha, scale 0 to 100 (0 no effect, 100 complete control)
[25] = 62 g ai/ha, scale 0 to 100, 0 no effect, 100 complete control
[26] = Postemergence, 31 g ai/ha, 0 to 100 scale (0 no effect, 100 complete control)
[27] = Postemergence, 125 g ai/ha, 0 to 100 scale, 0 no effect, 100 complete control
[28] = Preemergence, 31 g ai/ha, 0 to 100 scale, 0 is no effect, 100 is complete control
[29] = Preemergence, 125 g ai/ha, 0 to 100 scale (0 no effect, 100 complete control)
[30] = Postemergence, 31 g ai/ha, scale 0 to 100, 0 no effect, 100 complete control
[31] = Preemergence, 31 g ai/ha, 0 to 100 scale, 0 no effect, 100 complete control
[32] = Preemergence, 62 g ai/ha, scale 0 to 100
[33] = 16 g ai/ha, scale 0 to 100 (0 no effect, 100 complete control)

CCc1cc(-c2ccc(C(F)(F)F)cc2)nn1-c1c(O)cnn(CC)c1=O [Compound 67]
Nutsedge, Yellow plant response rating [1, 13]: 0
Nutsedge, Yellow plant response rating [1, 14]: 0
Plant response rating, Nutsedge, Yellow [1, 15]: 0
Plant response rating, Nutsedge, Yellow [1, 16]: 0
Plant response rating, Nutsedge, Yellow [1, 17]: 0
Plant response rating, Nutsedge, Yellow [1, 18]: 0
Nutsedge, Yellow plant response rating [1, 19]: 0
Nutsedge, Yellow plant response rating [1, 20]: 0
Soybean plant response rating [2, 13]: 0
Soybean plant response rating [2, 14]: 0
Plant response rating, Soybean [2, 15]: 0
Plant response rating, Soybean [2, 16]: 15
Plant response rating, Nightshade, E. B. [3, 21]: 0
Plant response rating, Nightshade, E. B. [3, 22]: 0
Nightshade, E. B. plant response rating ([3]; 8 g ai/ha, scale 0 to 100): 0
Nightshade, E. B. plant response rating ([3]; 16 g ai/ha, scale 0 to 100): 0
Plant response rating, Russian Thistle [4, 21]: 0
Plant response rating, Russian Thistle [4, 22]: 0
Russian Thistle plant response rating ([4]; 8 g ai/ha, scale 0 to 100): 0
Russian Thistle plant response rating ([4]; 16 g ai/ha, scale 0 to 100): 0
Ryegrass, Italian plant response rating [5, 13]: 100
Ryegrass, Italian plant response rating [5, 14]: 100
Plant response rating, Ryegrass, Italian [5, 15]: 100
Plant response rating, Ryegrass, Italian [5, 16]: 100
Plant response rating, Ryegrass, Italian [5, 17]: 100
Plant response rating, Ryegrass, Italian [5, 18]: 100
Ryegrass, Italian plant response rating [5, 19]: 100
Ryegrass, Italian plant response rating [5, 20]: 100
Ragweed plant response rating [6, 13]: 0
Ragweed plant response rating [6, 14]: 0
Plant response rating, Ragweed [6, 15]: 0
Plant response rating, Ragweed [6, 16]: 0
Plant response rating, Ragweed [6, 18]: 0
Cocklebur plant response rating ([7]; postemergence, 0-100 scale): 0
Plant response rating, Cocklebur [7, 23]: 0
Plant response rating, Cocklebur [7, 15]: 0
Plant response rating, Cocklebur [7, 16]: 0
Plant response rating, Cocklebur [7, 24]: 0
Plant response rating, Cocklebur [7, 17]: 0
Plant response rating, Cocklebur [7, 18]: 0
Cocklebur plant response rating ([7]; Preemergence, scale 0 to 100): 0
Pigweed plant response rating [8, 13]: 0
Pigweed plant response rating [8, 14]: 0
Plant response rating, Pigweed [8, 15]: 0
Plant response rating, Pigweed [8, 16]: 0
Plant response rating, Pigweed [8, 17]: 0
Plant response rating, Pigweed [8, 18]: 0
Pigweed plant response rating [8, 19]: 0
Pigweed plant response rating [8, 20]: 0
Kochia plant response rating ([9]; 8 g ai/ha): 0
Kochia plant response rating ([9]; 16 g ai/ha): 0
Plant response rating, Kochia ([9]; 31 g ai/ha, scale 0 to 100): 0
Plant response rating, Kochia [9, 25]: 0
Goosegrass plant response rating [10, 13]: 65
Goosegrass plant response rating [10, 14]: 70
Plant response rating, Goosegrass [10, 15]: 85
Plant response rating, Goosegrass [10, 16]: 90
Plant response rating, Goosegrass [10, 17]: 0
Plant response rating, Goosegrass [10, 18]: 60
Goosegrass plant response rating [10, 19]: 0
Goosegrass plant response rating [10, 20]: 0
Cupgrass, Woolly plant response rating [11, 13]: 90
Plant response rating, Cupgrass, Woolly [11, 23]: 100
Plant response rating, Cupgrass, Woolly [11, 15]: 100
Plant response rating, Cupgrass, Woolly [11, 16]: 100
Plant response rating, Cupgrass, Woolly [11, 17]: 0
Plant response rating, Cupgrass, Woolly [11, 18]: 0
Cupgrass, Woolly plant response rating [11, 19]: 0
Cupgrass, Woolly plant response rating [11, 20]: 0
Plant response rating, Wheat [12, 26]: 90
Plant response rating, Wheat [12, 27]: 100
Plant response rating, Wheat [12, 28]: 20
Plant response rating, Wheat [12, 29]: 90

Cc1cc(-c2ccc(Cl)cc2)nn1-c1c(OS(C)(=O)=O)cnn(C)c1=O [Compound 36]
Nutsedge, Yellow plant response rating [1, 13]: 0
Plant response rating, Nutsedge, Yellow [1, 23]: 0
Plant response rating, Nutsedge, Yellow [1, 30]: 0
Plant response rating, Nutsedge, Yellow [1, 16]: 0
Plant response rating, Nutsedge, Yellow [1, 24]: 0
Plant response rating, Nutsedge, Yellow [1, 31]: 0
Plant response rating, Nutsedge, Yellow [1, 32]: 0
Nutsedge, Yellow plant response rating [1, 19]: 0
Soybean plant response rating [2, 13]: 0
Plant response rating, Soybean [2, 23]: 0
Plant response rating, Soybean [2, 16]: 0
Plant response rating, Soybean [2, 24]: 0
Plant response rating, Soybean [2, 31]: 0
Plant response rating, Soybean [2, 32]: 0
Soybean plant response rating [2, 19]: 0
Plant response rating, Nightshade, E. B. [3, 33]: 0
Plant response rating, Nightshade, E. B. ([3]; 31 g ai/ha, 0 to 100 scale, 0 no effect, 100 complete control): 0
Plant response rating, Nightshade, E. B. ([3]; 62 g ai/ha, scale 0 to 100): 0
Nightshade, E. B. plant response rating ([3]; 8 g ai/ha, scale 0 to 100): 0
Plant response rating, Russian Thistle [4, 33]: 0
Plant response rating, Russian Thistle ([4]; 62 g ai/ha, scale 0 to 100): 80
Russian Thistle plant response rating ([4]; 8 g ai/ha, scale 0 to 100): 0
Ryegrass, Italian plant response rating [5, 13]: 10
Plant response rating, Ryegrass, Italian [5, 23]: 30
Plant response rating, Ryegrass, Italian [5, 30]: 65
Plant response rating, Ryegrass, Italian [5, 16]: 95
Plant response rating, Ryegrass, Italian [5, 24]: 98
Plant response rating, Ryegrass, Italian [5, 31]: 100
Plant response rating, Ryegrass, Italian [5, 32]: 100
Ryegrass, Italian plant response rating [5, 19]: 20
Ragweed plant response rating [6, 13]: 0
Plant response rating, Ragweed [6, 23]: 0
Plant response rating, Ragweed [6, 30]: 0
Plant response rating, Ragweed [6, 16]: 0
Plant response rating, Ragweed [6, 24]: 0
Plant response rating, Ragweed [6, 31]: 0
Plant response rating, Ragweed [6, 32]: 0
Ragweed plant response rating [6, 19]: 0
Cocklebur plant response rating ([7]; postemergence, 0-100 scale): 0
Plant response rating, Cocklebur [7, 23]: 0
Plant response rating, Cocklebur [7, 30]: 0
Plant response rating, Cocklebur [7, 16]: 0
Plant response rating, Cocklebur [7, 24]: 0
Plant response rating, Cocklebur [7, 31]: 0
Plant response rating, Cocklebur [7, 32]: 0
Cocklebur plant response rating ([7]; Preemergence, scale 0 to 100): 0
Pigweed plant response rating [8, 13]: 0
Plant response rating, Pigweed [8, 23]: 0
Plant response rating, Pigweed [8, 30]: 0
Plant response rating, Pigweed [8, 16]: 0
Plant response rating, Pigweed [8, 24]: 0
Plant response rating, Pigweed [8, 31]: 0
Plant response rating, Pigweed [8, 32]: 0
Pigweed plant response rating [8, 19]: 0
Kochia plant response rating ([9]; 8 g ai/ha): 0
Plant response rating, Kochia ([9]; 16 g ai/ha, scale 0 to 100): 0
Plant response rating, Kochia ([9]; 31 g ai/ha, scale 0 to 100, 0 no effect, 100 complete control): 0
Plant response rating, Kochia [9, 25]: 0
Goosegrass plant response rating [10, 13]: 0
Plant response rating, Goosegrass [10, 23]: 100
Plant response rating, Goosegrass [10, 30]: 100
Plant response rating, Goosegrass [10, 16]: 100
Plant response rating, Goosegrass [10, 24]: 100
Plant response rating, Goosegrass [10, 31]: 100
Plant response rating, Goosegrass [10, 32]: 100
Goosegrass plant response rating [10, 19]: 80
Cupgrass, Woolly plant response rating [11, 13]: 85
Plant response rating, Cupgrass, Woolly [11, 23]: 90
Plant response rating, Cupgrass, Woolly [11, 30]: 95
Plant response rating, Cupgrass, Woolly [11, 16]: 95
Plant response rating, Cupgrass, Woolly [11, 24]: 85
Plant response rating, Cupgrass, Woolly [11, 31]: 98
Plant response rating, Cupgrass, Woolly [11, 32]: 100
Cupgrass, Woolly plant response rating [11, 19]: 85
Plant response rating, Wheat [12, 26]: 0
Plant response rating, Wheat [12, 27]: 60
Plant response rating, Wheat [12, 28]: 50
Plant response rating, Wheat [12, 29]: 90
